Data set [1] relates to D04 xenograft tumors. Nature of the data set: Intratumoral in vivo treatment, D04 xenograft. To be noted: D04 tumors in mice; 400 μg twice a week into the tumor mass, no transfection reagent; vs non-targeting control ASO. The procedure:
(§1) In 4- to 6-week-old NOD.Cg-Prkdcscid Il2rgtm1Wjl/SzJ mice D04, cells in 150 1 of PBS and 501 of Matrigel were subcutaneously injected on the right posterior dorsal flank of 4- to 6-week-old homozygous nude Foxn1nu/Foxn1nu mice (Stock.no 007850). Mice were obtained from JAX®. Tumor size was measured using a digital caliper and the formula 0.5×(length×(width^2)) was used to calculate tumor volume. Mice were treated twice a week with 400 μg of (SEQ ID NO: 16) or non-targeting control-ASO. No transfection reagent was co-applied. ASO injections were applied into the tumor mass. Mice were weighted twice a week and observed for signs of distress or disorder.

The test system of data set [2] is sarcoma cell line SK-LMS-1. Nature of the data set: Cell viability assay (ATP quantitation). Type of data set: cell-based. The following applies: SK-LMS-1 sarcoma; 50 nM, 120 hrs; Lipofectamine3000 2 ul/ml; vs non-targeting control ASO. The procedure:
(§2) EsiRNA, siRNA and ASO GapmeRs were transfected in a final concentration of 50 nM unless mentioned otherwise and the transfection reagent Lipofectamine 3000 (2 ul/ml) was added according to the manufacturer's instructions.
(§3) Dependent on cell doubling time, 0.7-2×10^^3 cells were seeded in 96 well plates. 1 day after seeding cells were incubated in media with oligonucleotide concentration and/or MEKi and transfection reagent. 3 (synergy experiments) or 5 (solely ASO) days after transfection Total luminescence was measured on the SynergyHT plate reader (BioTek) using Gen5 software.
(§4) Cell viability was compared to treatment with non-targeting control ASO-treatment. Lipofectamine3000 concentration was 2 ul/ml.

The test system of data set [3] is hepatocellular carcinoma cell line HepG2. Nature of the data set: Cell viability assay (ATP quantitation). It is filed as cell-based. The following applies: 50 nM, 120 hrs, Lipofectamine3000 2 ul/ml, vs non-targeting control ASO. The procedure:
as §2, §3, §4

For data set [4], the system named is D04 xenograft tumors. Nature of the data set: Intravenous in vivo treatment, D04 xenograft. To be noted: D04 tumors in mice; 700 μg twice a week, intravenous tail vein, no transfection reagent; vs non-targeting control ASO. The procedure:
as §1, with “mice, D04” for “mice D04,”, “50 1” for “501”, “right and left” for “right”, “700” for “400”, “intravenously as tail vein injections.” for “into the tumor mass.”

For data set [5], the system named is WM3629 melanoma cell line. Nature of the data set: Cell viability assay (ATP quantitation). Type of data set: cell-based, human. The following applies: 50 nM, 5 days (120 hrs), vs non-targeting control. In outline:
(§5)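 Cells (0.7-2×10^^3 per well, by doubling time) were transfected one day after seeding with esiRNA, siRNA or ASO GapmeRs at 50 nM final unless stated, using Lipofectamine 3000, with or without MEKi. Total luminescence was read 3 days (synergy) or 5 days (ASO alone) after transfection.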

Data set [6] relates to AV5 primary melanoma cell line. The data set can be described thus: Cell viability assay (ATP quantitation). Type of data set: cell-based, human. To be noted: 50 nM, 5 days (120 hrs), vs non-targeting control. In outline:
as §5

The subject of another data set is MM415 melanoma cell line. Nature of the data set: Cell viability assay (ATP quantitation). It is filed as cell-based, human. To be noted: 50 nM, 5 days (120 hrs), vs non-targeting control. In outline:
as §5

Data set [7] concerns Sk-Mel-2 melanoma cell line. Nature of the data set: Cell viability assay (ATP quantitation). It is filed as cell-based, human. The following applies: 50 nM, 5 days (120 hrs), vs non-targeting control. In outline: as §5
For data set [8], the system named is WM3211 melanoma cell line. Nature of the data set: Cell viability assay (ATP quantitation). It is filed as cell-based, human. To be noted: 50 nM, 5 days (120 hrs), vs non-targeting control. In outline:
as §5

The subject of data set [9] is WM1366 melanoma cell line. The data set can be described thus: Cell viability assay (ATP quantitation). Type of data set: cell-based, human. The following applies: 50 nM, 5 days (120 hrs), vs non-targeting control. In outline:
as §5

The test system of a further data set is VMM39 melanoma cell line. The data set can be described thus: Cell viability assay (ATP quantitation). Type of data set: cell-based, human. To be noted: 50 nM, 5 days (120 hrs), vs non-targeting control. The method in brief:
as §5

Data set [10] concerns Hs852.T primary melanoma cell line. Nature of the data set: Cell viability assay (ATP quantitation). Type of data set: cell-based, human. To be noted: 50 nM, 5 days (120 hrs), vs non-targeting control. In outline:
as §5

Data set [11] concerns Sk-Mel-28 melanoma cell line. The data set can be described thus: Cell viability assay (ATP quantitation). Type of data set: cell-based, human. The following applies: 50 nM, 5 days (120 hrs), vs non-targeting control. The method in brief: as §5
For another data set, the system named is D04 melanoma cell line. Nature of the data set: Cell viability assay (ATP quantitation). Type of data set: cell-based, human. The following applies: 50 nM, 5 days (120 hrs), vs non-targeting control. In outline: as §5

1 sequence from patent US20250197864A1, “LNCRNA TRANSCRIPTS IN MELANOMAGENESIS” (The Regents of the University of California, priority 2021, published 2025) can be followed below.

On to “TGCGCGGCGGAAAGAA (QIAGEN GapmeR, modification pattern not given here) [SEQ ID NO: 16, ASO targeting AC004540.4 (TRASH), intronic region of Isoform 2; used in vivo]”, for which the tumor growth entry with D04 xenograft tumors [1] and in the data set with D04 xenograft tumors [4] was “significantly reduced tumor growth” in each case. The cell viability decrease result (in [2]; in data set [3]; in [5]; in [6]; in the data set on MM415 melanoma cell line; in data set [7]) was “significant cell viability decrease” each time. For the same sequence, the cell viability decrease result (in data set [8]; in data set [9]; in the data set on VMM39 melanoma cell line; in [10]; in data set [11]; in the data set with D04 melanoma cell line) was “significant cell viability decrease” each time.
